Tested on: GABA uptake by a crude synaptosomal fraction (P2) of the rat brain
Assay: Inhibition of 3H-GABA uptake by crude synaptosomal fraction (P2) of rat brain
Format: biochemical
Details: rat brain P2 synaptosomal suspension, 37° C., 15 minutes preincubation, 1 μM 3H-GABA, incubation time 3 minutes; read-out: IC50 (concentration producing a 50% inhibition of GABA accumulation)
Protocol: The inhibition of GABA uptake produced by the compounds of this invention is measured by the ability of the active medicament to inhibit ^3 H-GABA uptake by a crude synaptosomal fraction (P2) of the rat brain. In this test system, aliquots of the P2 suspension are preincubated in a buffered physiological medium at 37° C. in the presence of test compound for 15 minutes. Uptake is initiated by the addition of ^3 H-GABA to a final concentration of 1 μM and terminated by filtration through a 0.45 um Millipore filter. Incubation time is 3 minutes. A compound producing a 50% or greater inhibition of GABA uptake at concentrations of 10 μM is considered to show biosignificant activity. The IC50 value is the concentration of a compound producing a 50% inhibition of GABA accumulation.

O=C(O)CC1CCN(CCC=C(c2ccccc2)c2ccccc2)C1 (stereo not shown) [1-(4,4-diphenyl-3-butenyl)-3-pyrrolidineacetic acid]
IC50: 121 nM

— patent US4514414A, “N-Substituted pyrrolidineacetic acids and their esters” (Smithkline Beckman Corporation, priority 1982, dated 1985)
